From PubChem BioAssay AID449759 (The Scripps Research Institute Molecular Screening Center, 2010)
Active and inactive are the calls of the source. No rule for the calls is given here.

Tested on: NIH 3T3 cells, IRF-1 mRNA qPCR, IFNg-stimulated
Test: activators of IFNg-induced IRF-1 mRNA expression, late-stage follow-up, counter-screen for STAT1 activator project, SYBR qPCR, NIH 3T3 cells, powder samples (AID 449759)
Conditions: at 10 µM; stronger effect = higher value

Compound	fold change
CCOC(=O)/C(C#N)=C/c1cc(C)n(-c2ccccc2)c1C	0.7 (inactive)
COc1ccc2[nH]c3c(c2c1)CCn1c-3nc2ccccc2c1=O	0.89 (inactive)
N#C/C(=C\c1ccc(N2CCOCC2)o1)c1nc2ccccc2[nH]1	0.5 (inactive)
Cc1ccc(C(=O)Nc2nc3ccccc3s2)s1	0.93 (inactive)
COc1ccc(-c2cc(C)nc3c(-c4ccccc4)cnn23)cc1	0.81 (inactive)
COc1ccc(-c2csc(N3C(=O)CNC3=S)n2)cc1	0.34 (inactive)
O=C(/C=C/Nc1ccccc1F)c1ccc(Br)cc1	0.77 (inactive)
CCN(CC)c1ccc2cc(C(=O)Nc3ccccn3)c(=O)oc2c1	0.85 (inactive)
